Measured values: ChEMBL document CHEMBL1201862, “PubChem BioAssay data set” (2004)
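Five concentrations, 48 hours, 96-well plates. Abbreviation: GI50, concentration required for 50% inhibition of growth.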 Activity calls are given as the source filed them. Rule as the data show it: active = GI50 up to about 1.1 µM and inactive = higher.

What was measured:
Assay in all cases: inhibition of tumour cell growth, NCI panel, 48 h
Hs-578T = system: Hs-578T
PC-3 = system: PC-3
MDA-N = system: MDA-N
LXFL 529 = system: LXFL 529
DLD-1 = system: DLD-1
M19-MEL = system: M19-MEL
KM-20L2 = system: KM-20L2
RXF 631 = system: RXF 631

| Structure (SMILES) | GI50 (Hs-578T) | GI50 (PC-3) | GI50 (MDA-N) | GI50 (LXFL 529) | GI50 (DLD-1) | GI50 (M19-MEL) | GI50 (KM-20L2) | GI50 (RXF 631) |
| --- | --- | --- | --- | --- | --- | --- | --- | --- |
| COc1nc(Cl)nc(N[C@H](C)c2c3ccccc3cc3ccccc23)n1 | 7.69 µM (inactive) | 14.9 µM (inactive) | 2.71 µM (inactive) |  |  |  |  |  |
| CCN(CC)CCCNC(=O)c1ccccc1Nc1c(Cl)cccc1Cl |  |  |  | 14.6 µM (inactive) | 11.6 µM (inactive) | 3.28 µM (inactive) | 2.56 µM (inactive) |  |
| Nc1nc(N)nc(-c2ccccc2NS(=O)(=O)c2ccc([N+](=O)[O-])cc2)n1 |  |  |  |  | 59.6 µM (inactive) | 34.9 µM (inactive) | > 100 µM (inactive) |  |
| COc1ccc2[nH]c(C(=O)N3CC(CCl)c4c3cc(N)c3ccccc43)cc2c1 (configuration not stated) |  | < 0.01 µM (active) | 0.0112 µM (active) |  |  |  |  |  |
| O=C1CN2Cc3cc(N4CCOCC4)ccc3N=C2N1 | 23.8 µM (inactive) | 31.4 µM (inactive) |  |  |  |  |  |  |
| Cc1ccc(NC(=O)CC(=O)n2nc(-c3ccccc3)c(/N=N/c3ccccc3C(=O)O)c2-c2ccccc2)cc1 |  |  |  | > 100 µM (inactive) | 39.3 µM (inactive) | > 100 µM (inactive) | 84.7 µM (inactive) | > 100 µM (inactive) |
| O=c1cnn(C/C=C/CP(=O)(O)O)c(=O)[nH]1 | > 100 µM (inactive) | > 100 µM (inactive) | > 100 µM (inactive) |  |  |  |  |  |
| CCOC(=O)C(C)OC(=O)c1ccc(C)cc1 (configuration not stated) |  |  |  | > 100 µM (inactive) | > 100 µM (inactive) | > 100 µM (inactive) | > 100 µM (inactive) | > 100 µM (inactive) |
| Cc1cccc2sc(-c3ccc(O)cc3)nc12 |  | 17.5 µM (inactive) | 3.97 µM (inactive) |  |  |  |  |  |
| O=C(O)CC/C(=N\Nc1nsc2ccccc12)c1ccccc1 |  |  |  | 42.5 µM (inactive) |  | 72.3 µM (inactive) | 78.7 µM (inactive) |  |
